In patent US20170014524A1, “AURISTATIN-ANTIBODY CONJUGATES AND USES THEREOF” (The California Institute for Biomedical Research, priority 2015, published 2017):
Where a SMILES comes first, the peptide text is derived from it. [ ]: non-standard residue; d: D form. The star is where a group is joined. Dolaproine = CO[C@@H]([C@@H]1CCCN1)[C@@H](C)C(=O)O; Dil = CC[C@H](C)[C@H](NC)[C@@H](CC(=O)O)OC; Doe = c1ccc(C[C@H](N*)c2nccs2)cc1; NMeV = CN[C@H](C(=O)O)C(C)C

Key:
Type in all cases: cell-based
Conditions in all cases: 600 nM to 30 pM, 4 days at 37° C.
[1] = test system: Jurkat (CXCR4+) cells; assay: Cytotoxicity (CellTiter-Glo cell viability, 4 days) in Jurkat cells
Description: (§1) Cell viabilities were measured by addition of CellTiter-Glo (Promega) and the luminescent signals were read by EnVision plate reader.
(§2) The following illustrative examples are representative of embodiments of the compositions and methods described herein and are not meant to be limiting in any way. All cell lines were purchased from ATCC unless otherwise stated. Ramos, Jurkat, OPM-2 cells were cultured in RPMI with 10% FBS and 100 U/mL Penicillin Streptomycin. MDA-MB-231 cells were cultured in DMEM (high glucose) with 10% FBS, 1 mM sodium pyruvate, and 100 U/mL Penicillin Streptomycin. SKBR-3 cells were cultured in DMEM with 10% FBS and 1x Antibiotic-Antimycotic (100 U/mL Penicillin Streptomycin, 0.25 μg/mL Fungizone). […]
(§3) Ramos (CXCR4+), Jurkat (CXCR4+), and MDA-MB-231 (CXCR4−) cells were treated with either small molecule drugs, anti-CXCR4 (SEQ ID NOS: 3, 4), or anti-CXCR4-auristatin conjugates with concentrations ranging from 600 nM to 30 pM for 4 days at 37° C. Cell viabilities were measured by addition of CellTiter-Glo (Promega) and the luminescent signals were read by EnVision plate reader.
(§4) Briefly, 1000 cells/well were seeded in a 384-well plate (45 uL/well with their corresponding media) and incubated at 37° C. overnight. […] Plates were shaken and incubated for at least 10 min before the generated luminescent signals were read using PerkinElmer EnVision Multilabel Reader.

[2] = test system: MDA-MB-231 (CXCR4−) cells; assay: Cytotoxicity (CellTiter-Glo cell viability, 4 days) in MDA-MB-231 cells
Description: as §1, §2, §3, §4

[3] = test system: Ramos (CXCR4+) cells; assay: Cytotoxicity (CellTiter-Glo cell viability, 4 days) in Ramos cells
Description: as §1, §2, §3, §4

CC[C@H](C)[C@@H]([C@@H](CC(=O)N1CCC[C@H]1[C@H](OC)[C@@H](C)C(=O)N[C@@H](Cc1ccccc1)c1nccs1)OC)N(C)C(=O)[C@@H](NC(=O)[C@@H](NC)C(C)C)C(C)C [MMAD, monomethyl auristatin D] (H-[NMeV]V[Dil][Dolaproine]-Doe)
IC50 [1]: 2.8 nM
IC50 [2]: 5.2 nM
IC50 [3]: 1.4 nM
